Assay results taken from publication PMC8861050, “Design, synthesis and evaluation of novel 2-oxoindoline-based acetohydrazides as antitumor agents” (Scientific Reports, 2022).

Tests used:
Type in all cases: cell-based
[1] = Cytotoxicity on normal mesenchymal stem cells; details: human bone marrow-derived mesenchymal stem cells; mean ± SEM; read-out: Cytotoxicity (IC50) MSCs
[2] = test system: U937 human lymphoma cells; experiment: Cell cycle analysis (PI, flow cytometry); details: 24 h
Method: U937 human lymphoma cells (5 × 10^5/mL per well) were plated in 6-well culture plates and allowed to grow for 24 h. In our first experiment, we examined the effects of 4f, 4h, 4n, 4o, 4p, and PAC-1 on cell cycles at 50 µM. In the second experiment, we examined the dose-dependent effect of 4o at 5, 10, and 30 µM and PAC-1 at 30 µM on cell cycles. The cells were treated with compounds for 24 h, and then harvested. The harvested cells were washed twice with ice-cold PBS, fixed in 75% ice-cold ethanol, and stained with propidium iodide (PI) in the presence of RNase at room temperature for 30 min. The stained cells were analyzed for DNA content using a FACScalibur flow cytometer (BD Biosciences, San Jose, CA, USA) and the data were processed using Cell Quest Pro software (BD Biosciences).
(§1) Figure 3 Cell cycle analysis after treatment with some compounds. U937 human lymphoma cells were treated with compounds (50 µM) for 24 h. The harvested cells were stained with propidium iodide (PI) in the presence of RNase and then were analyzed for DNA content by using flow cytometry. Ten thousand cells were acquired (n = 3). UN untreated, VH vehicle (DMSO. 0.1%). Representative histograms (A) and bar graphs (B) are shown. p values were calculated using one-way ANOVA in GraphPad Software (San Diego, CA, USA). *p < 0.01 vs VH control.
as §1, with “Figure 4” for “Figure 3”, “analysis under” for “analysis after”, “with different concentrations of compound 4o.” for “with some compounds.”, “with compound 4o at 5, 10 and 30 µM or PAC-1 (30” for “with compounds (50”

[3] = test system: SW620, PC-3, and NCI-H23 cell lines; experiment: Cytotoxicity, summary statements over three human cancer cell lines; details: SW620, PC-3, NCI-H23
Description: Three human cancer cell lines: colon cancer (SW620), prostate cancer (PC3), and lung cancer (NCI-H23) were used for sceening the cytotoxicity of the compounds. The cancer cells were purchased from American Type Culture Collection (Manassas, VA, USA). Other reagents/media for cell culture were obtained from GIBCO (Grand Island, New York, USA). The testing cancer cells were culture in Dulbecco’s Modified Eagle Medium until confluence. Then, they were trypsinized and suspended at the level of 3 × 10^4 cells/mL of cell culture medium. On day 0, cancer cells were seeded at a volume of 180 µL/well of 96-well plates and incubated for 24 h at 37 °C in a 5% CO2 incubator. On day 1, 20 µL of various concentrations of testing compounds were added to each well of the 96-well plates. Chemicals were dissolved in dimethyl sulfoxide (DMSO, stock) and diluted in culture medium (1% DMSO) before adding to the culture. After 48 h incubation, the sulforhodamine B assay was used for cell density determination with slight modifications[22]–[26]. The Probits were used for the calculation of IC50 values. The reported IC50 were the averages of three independent screening (SD ≤ 10%)[27].
Overally, 5-fluorinated compounds (4i–p and 5d–f) were slightly more cytotoxic than non-fluorinated ones (4a–h, 5a–c). […]

Which IC50 [1] does the source give for `COc1ccc(/C=N/NC(=O)CN2C(=O)Cc3cc(F)ccc32)c(O)c1` [Compound 4o, (E)-N'-(2-Hydroxy-4-methoxybenzylidene)-2-(5-fluoro-2-oxoindolin-1-yl)acetohydrazide] here?
Its IC50 is 12.8 ± 0.71 µM.

What about the “Effect on cell cycle, dose dependence” value ([2]; 5 µM) of the same molecule?
Its value is “inhibited cell cycles”.

And the “Effect on cell cycle distribution” value ([2]; 50 µM)?
Its value is “accumulated U937 cells in the S phase”.

And the “IC50 values relative to PAC-1” value [3]?
Its value is “three- to five-fold lower”.
